Patent US10077284B2, “UBA5 inhibitors” (THE GOVERNING COUNCIL OF THE UNIVERSITY OF TORONTO, priority 2014, dated 2018)
Read-outs that look alike come from different tables or passages of the source. Values belong to the molecule of their own block, whether it stands above or below them.

Biological target: T1, GST-UBA5 (Homo sapiens, UniProt Q9GZZ9)
T1 construct: made in house
Assay: UBA5 transthiolation assay (UFC1-UFM1 conjugate formation)
Format: biochemical
Conditions: for IC50: read-out: IC50; for inhibition at 0.1 µM: [Ligand] 0.1 μM; for inhibition at 0.1 µM / inhibition at 1 µM / inhibition at 5 µM / inhibition at 10 µM / inhibition at 50 µM / inhibition at 100 µM: n = 1; for inhibition at 1 µM: [Ligand] 1 μM; for inhibition at 5 µM: [Ligand] 5 μM; for inhibition at 10 µM: [Ligand] 10 μM; for inhibition at 50 µM: [Ligand] 50 μM; for inhibition at 100 µM: [Ligand] 100 μM

[1] = Table 3, n = 3, tested 0.1-100 μM
[2] = Table 1, transthiolation enzymatic assay

T1 sequence (Q9GZZ9 whole entry): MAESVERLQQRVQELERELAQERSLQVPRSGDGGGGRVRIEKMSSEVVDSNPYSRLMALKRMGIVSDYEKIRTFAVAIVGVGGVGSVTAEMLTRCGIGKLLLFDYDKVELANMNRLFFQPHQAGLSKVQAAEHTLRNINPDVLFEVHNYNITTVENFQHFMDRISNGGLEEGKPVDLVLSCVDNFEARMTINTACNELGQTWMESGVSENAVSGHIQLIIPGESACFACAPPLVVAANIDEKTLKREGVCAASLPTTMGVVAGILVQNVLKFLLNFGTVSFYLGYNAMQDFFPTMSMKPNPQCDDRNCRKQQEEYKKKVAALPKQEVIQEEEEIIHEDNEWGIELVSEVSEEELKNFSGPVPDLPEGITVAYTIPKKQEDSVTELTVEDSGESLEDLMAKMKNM
Method: Initial rates were recorded over 30 second time intervals from 0 to 2.5 min (normal kinetics) or 0 to 5 min (inhibition kinetics). Reactions were initiated by the addition of ATP and stopped using 4× Laemmli sample buffer (BioRad). The generated protein conjugates were separated on a 10% non-degenerating SDS-polyacrylamide gel (4-15% gels were used for the UAE transthiolaton assay), followed by Western blot analysis, with the exception of GST-UBA5 where protein bands were detected using Coomassie™ Brilliant Blue R-250 staining or Stain-Free gel imaging for the enzymatic assays (Bio-Rad). Transfers for the UAE and NAE immunoblots were performed using nitrocellulose membranes and blocking and blotting was performed as described above with cellular protein extracts. The His6-tagged Ub-UBCH6 complex was detected using an anti-His mouse monoclonal primary antibody (1:500, abcam). A rabbit anti-NEDD8 polyclonal primary antibody (1:500, BostonBiochem) was used for the detection of the E2-NEDD8 complexes. […] Inhibitory data was fit to a dose-response curve (Y=Bottom+(Top−Bottom)/(1+10^(X-Log IC50))) using GraphPad Prism 6.

IC50 (Table 5, n = 3): 20 µM
Molecule: Nc1ncnc2c1ncn2[C@@H]1O[C@H](C(=O)NCCN2CCCNCCNCCCNCC2)[C@@H](O)[C@H]1O.[Zn+2] [Compound 1.1.A.Cy.Zn, (2S,3S,4R,5R)—N-(2-(1,4,8,11-tetraazacyclotetradecan-1-yl)ethyl)-5-(6-amino-9H-purin-9-yl)-3,4-dihydroxytetrahydrofuran-2-carboxamide, zinc(II) trifluoromethanesulfonate]

IC50 (Table 5, n = 3): 38.2 µM
Molecule: Nc1ncnc2c1ncn2[C@@H]1O[C@H](C(=O)NCCCCCCN2CCNCCNCCNCC2)[C@@H](O)[C@H]1O.[Zn+2] [Compound 1.5.A.Zn, (2S,3S,4R,5R)—N-(6-(1,4,7,10-tetraazacyclododecan-1-yl)hexyl)-5-(6-amino-9H-purin-9-yl)-3,4-dihydroxytetrahydrofuran-2-carboxamide, zinc(II) trifluromethanesulfonate]

IC50 (Table 4, n = 3): 4.24 µM
Molecule: Nc1ncnc2c1ncn2[C@@H]1O[C@H](C(=O)NCC(=O)N2CCCNCCNCCCNCC2)[C@@H](O)[C@H]1O.[Zn+2] [Compound 1.1.Cy.Zn, (2S,3S,4R,5R)-5-(6-amino-9H-purin-9-yl)-3,4-dihydroxy-N-(2-oxo-2-(1,4,8,11-tetraazacyclotetradecan-1-yl)ethyl)tetrahydrofuran-2-carboxamide, zinc(II) trifluromethanesulfonate]

Molecule: (2S,3S,4R,5R)-5-(6-amino-9H-purin-9-yl)-3,4-dihydroxy-N-(2-oxo-2-(1,4,7,10-tetraazacyclododecan-1-yl)ethyl)tetrahydrofuran-2-carboxamide, copper(II) trifluromethanesulfonate [Compound 1.1.Cu]
IC50 [1]: > 100 µM

IC50 [2]: 5.2 µM
Molecule: Nc1ncnc2c1ncn2[C@@H]1O[C@H](C(=O)NCCCCC(=O)N2CCNCCNCCNCC2)[C@@H](O)[C@H]1O.[Zn+2] [Compound 1.4.Zn, (2S,3S,4R,5R)-5-(6-amino-9H-purin-9-yl)-3,4-dihydroxy-N-(5-oxo-5-(1,4,7,10-tetraazacyclododecan-1-yl)pentyl)tetrahydrofuran-2-carboxamide zinc (II) trifluoromethanesulfonate]

IC50 (Table 6, n = 3): 13.6 µM
Molecule: O=C(NCCCCCC(=O)N1CCNCCNCCNCC1)[C@H]1O[C@@H](n2cnc3c(N[C@H]4CCc5ccccc54)ncnc32)[C@H](O)[C@@H]1O.[Zn+2] [Compound 1.5.An6.Zn, (2S,3S,4R,5R)-5-(6-(((S)-2,3-dihydro-1H-inden-1-yl)amino)-9H-purin-9-yl)-3,4-dihydroxy-N-(6-oxo-6-(1,4,7,10-tetraazacyclododecan-1-yl)hexyl)tetrahydrofuran-2-carboxamide, zinc(II) trifluoromethanesulfate]

Molecule: (2S,3S,4R,5R)—N-(6-(1,4,7,10-tetraazacyclododecan-1-yl)hexyl)-5-(6-amino-9H-purin-9-yl)-3,4-dihydroxytetrahydrofuran-2-carboxamide, copper(II) trifluromethanesulfonate [Compound 1.5.A.Cu]
IC50 (Table 5, n = 3): > 100 µM

Molecule: (2S,3S,4R,5R)-5-(6-amino-9H-purin-9-yl)-3,4-dihydroxy-N-(2-oxo-2-(1,4,8,11-tetraazacyclotetradecan-1-yl)ethyl)tetrahydrofuran-2-carboxamide, copper(II) trifluoromethanesulfonate [Compound 1.1.Cy.Cu]
IC50 (Table 4, n = 3): 45.4 µM

Molecule: (2S,3S,4R,5R)—N-(2-(1,4,7,10-tetraazacyclododecan-1-yl)ethyl)-5-(6-amino-9H-purin-9-yl)-3,4-dihydroxytetrahydrofuran-2-carboxamide, copper(II) trifluromethanesulfonate [Compound 1.1.A.Cu]
IC50 (Table 5, n = 3): 21.1 µM

Molecule: (2S,3S,4R,5R)-5-(6-amino-9H-purin-9-yl)-3,4-dihydroxy-N-(4-oxo-4-(1,4,7,10-tetraazacyclododecan-1-yl)butyl)tetrahydrofuran-2-carboxamide, copper(II) trifluromethanesulfonate [Compound 1.3.Cu]
IC50 [1]: > 100 µM

IC50 (Table 5, n = 3): 7.61 µM
Molecule: Nc1ncnc2c1ncn2[C@@H]1O[C@H](C(=O)NCCN2CCNCCNCCNCC2)[C@@H](O)[C@H]1O.[Zn+2] [Compound 1.1.A.Zn, (2S,3S,4R,5R)—N-(2-(1,4,7,10-tetraazacyclododecan-1-yl)ethyl)-5-(6-amino-9H-purin-9-yl)-3,4-dihydroxytetrahydrofuran-2-carboxamide, zinc(II) trifluoromethanesulfonate]

inhibition at 0.1 µM: 24% | inhibition at 1 µM: 10% | inhibition at 5 µM: 17% | inhibition at 10 µM: 28% | inhibition at 50 µM: 11% | inhibition at 100 µM: 0%
Molecule: Nc1ncnc2c1ncn2[C@@H]1O[C@H](C(=O)NCCCC(=O)N2CCNCCNCCNCC2)[C@@H](O)[C@H]1O [Compound 1.3, (2S,3S,4R,5R)-5-(6-amino-9H-purin-9-yl)-3,4-dihydroxy-N-(4-oxo-4-(1,4,7,10-tetraazacyclododecan-1-yl)butyl)tetrahydrofuran-2-carboxamide]

Molecule: Nc1ncnc2c1ncn2[C@@H]1O[C@H](C(=O)NCCCCCC(=O)N2CCNCCNCCNCC2)[C@@H](O)[C@H]1O.O=S(=O)([O-])C(F)(F)F.O=S(=O)([O-])C(F)(F)F.[Cu+2] [Compound 1.5.Cu, (2S,3S,4R,5R)—N-(6-(1,4,7,10-tetraazacyclododecan-1-yl)-6-oxohexyl)-5-(6-amino-9H-purin-9-yl)-3,4-dihydroxytetrahydrofuran-2-carboxamide copper (II) trifluoromethanesulfonate]
IC50 [1]: > 100 µM

Molecule: (2S,3S,4R,5R)-5-(6-amino-9H-purin-9-yl)-3,4-dihydroxy-N-(2-oxo-2-(1,4,7,10-tetraazacyclododecan-1-yl)ethyl)tetrahydrofuran-2-carboxamide zinc (II) trifluromethanesulfonate [Compound 1.1.Zn]
IC50 [2]: 10.5 µM | IC50 (Table 5, n = 3): 10.5 µM

Molecule: (2S,3S,4R,5R)-5-(6-(((S)-2,3-dihydro-1H-inden-1-yl)amino)-9H-purin-9-yl)-3,4-dihydroxy-N-(6-oxo-6-(1,4,7,10-tetraazacyclododecan-1-yl)hexyl)tetrahydrofuran-2-carboxamide, copper(II) trifluoromethanesulfonate [Compound 1.5.An6.Cu]
IC50 (Table 6, n = 3): 12.5 µM

Molecule: (2S,3S,4R,5R)-5-(6-amino-9H-purin-9-yl)-3,4-dihydroxy-N-(5-oxo-5-(1,4,7,10-tetraazacyclododecan-1-yl)pentyl)tetrahydrofuran-2-carboxamide, copper(II) trifluoromethanesulfonate [Compound 1.4.Cu]
IC50 [1]: 38.8 µM

IC50 [2]: 8.9 µM
Molecule: Nc1ncnc2c1ncn2[C@@H]1O[C@H](C(=O)NCCC(=O)N2CCNCCNCCNCC2)[C@@H](O)[C@H]1O.[Zn+2] [Compound 1.2.Zn, (2S,3S,4R,5R)-5-(6-amino-9H-purin-9-yl)-3,4-dihydroxy-N-(3-oxo-3-(1,4,7,10-tetraazacyclododecan-1-yl)propyl)tetrahydrofuran-2-carboxamide zinc (II) trifluoromethanesulfonate]

IC50 [2]: 23.3 µM
Molecule: Nc1ncnc2c1ncn2[C@@H]1O[C@H](C(=O)NCCCC(=O)N2CCNCCNCCNCC2)[C@@H](O)[C@H]1O.[Zn+2] [Compound 1.3.Zn, (2S,3S,4R,5R)-5-(6-amino-9H-purin-9-yl)-3,4-dihydroxy-N-(4-oxo-4-(1,4,7,10-tetraazacyclododecan-1-yl)butyl)tetrahydrofuran-2-carboxamide zinc (II) trifluoromethanesulfonate]

inhibition at 0.1 µM: 0% | inhibition at 1 µM: 25% | inhibition at 5 µM: 41% | inhibition at 10 µM: 31% | inhibition at 50 µM: 4% | inhibition at 100 µM: 26%
Molecule: Nc1ncnc2c1ncn2[C@@H]1O[C@H](C(=O)NCC(=O)N2CCNCCNCCNCC2)[C@@H](O)[C@H]1O [Compound 1.1, (2S,3S,4R,5R)-5-(6-amino-9H-purin-9-yl)-3,4-dihydroxy-N-(2-oxo-2-(1,4,7,10-tetraazacyclododecan-1-yl)ethyl)tetrahydrofuran-2-carboxamide]

Molecule: (2S,3S,4R,5R)-5-(6-amino-9H-purin-9-yl)-3,4-dihydroxy-N-(3-oxo-3-(1,4,7,10-tetraazacyclododecan-1-yl)propyl)tetrahydrofuran-2-carboxamide, copper(II) trifluromethanesulfonate [Compound 1.2.Cu]
IC50 [1]: 39.6 µM

Molecule: C1CNCCNCCNCCN1.[Zn+2] [zinc(II) cyclen complex, reference compound]
effect on the transthiolation reaction (at 100 μM): able to impede the transthiolation reaction
